Test results as given in patent US4459302A, “Acyl-1H-1,2,4-triazole derivatives” (Gruppo Lepetit, S.p.A., priority 1978, dated 1984).

tested on: female Syrian golden hamsters; experiment: antifertility (post-coital post-implantation) activity, subcutaneous, hamsters; format: in vivo, Syrian golden hamster; conditions: Mesocricetus auratus, sc, 336 h; s.c. hamster; dosed days 4-8 of pregnancy, autopsy day 14; read-out: ED50 (100% activity, absence of live fetuses, in 50% of the animals)
Source text: Fertility regulation can usually be achieved in a number of ways through the administration of hormonal substances. These can involve ovulation inhibition, ova transport, fertilization, implantation of the zygote, resorption of the fetus or abortion. Only with ovulation inhibition has there developed a successful method that is clinically useful. The compounds of this invention allow an entirely new approach to this problem in which a non-hormonal compound can be administered parenterally, orally or by intravaginal route once or more times as needed after a "missed period" or to induce termination of a more advanced pregnancy. Representative experiments for assessing antifertility activity were carried out with female Syrian golden hamsters weighing 100 to 130 g. The animals were mated and the presence of sperm in the vagina was taken as evidence of mating. The day sperm was detected and considered day one of pregnancy, since in our laboratories and those of other investigators 90 to 100% of animals that mate as evidenced by vaginal sperm are pregnant.
Pregnancy was later confirmed at the time of autopsy by presence of fetuses or implantation sites in the uterus. Even if an animal aborts the fetus, implantation scars still remain as evidence that the animal has been pregnant. […] The animals were autopsied on day 14 of pregnancy and the uteri were examined for evidence of pregnancy (implantation sites, fetalresorption or live fetuses), hemorrhage, and evidence of abnormalities of the uterus, placenta or fetuses. A compound was considered to be active if there was a reduction of live fetuses in at least 60% of the treated animals and the presence of implantation sites proves the animal to have been pregnant.
The compounds were then studied for dose-activity relationship and the corresponding ED50 values, i.e. 100% activity (absence of live fetuses) in 50% of the animals, were also detrmined. The following Table reports the ED50 values of some representative compounds of the invention as well as that of the above mentioned known substance: […]

| SMILES | ED50 |
| --- | --- |
| COc1cccc(-c2nc(-c3ccc(Cl)cc3C)n(C(C)=O)n2)c1 [Example 5, 1-Acetyl-5-(4-chloro-2-methylphenyl)-3-(3-methoxyphenyl)-1H-1,2,4-triazole] | 0.06 mg/kg |
| CCc1ccccc1-c1nc(-c2cccc(OC)c2)nn1C(=O)Nc1ccc([N+](=O)[O-])cc1 [Example 20, 5-(2-Ethylphenyl)-3-(3-methoxyphenyl)-1-(4-nitrophenyl)carbamoyl-1H-1,2,4-triazole] | 0.05 mg/kg |
| COc1cccc(-c2nc(-c3ccccc3C)n(C(=O)c3ccccc3)n2)c1 [Example 11, 1-Benzoyl-3-(3-methoxyphenyl)-5-(2-methylphenyl)-1H-1,2,4-triazole] | 0.1 mg/kg |
| CCc1ccccc1-c1nc(-c2cccc(OC)c2)nn1C(C)=O [Example 6, 1-Acetyl-5-(2-ethylphenyl)-3-(3-methoxyphenyl)-1H-1,2,4-triazole] | 0.04 mg/kg |
| CCc1ccccc1-c1nc(-c2cccc(OC)c2)nn1C(=O)OC [Example 9, 1-Carbomethoxy-5-(2-ethylphenyl)-3-(3-methoxyphenyl)-1H-1,2,4-triazole] | 0.05 mg/kg |
| CCc1ccccc1-c1nc(-c2cccc(OC)c2)nn1C(=O)Nc1ccc(OC)cc1 [Example 17, 5-(2-Ethylphenyl)-3-(3-methoxyphenyl)-1-(4-methoxyphenylcarbamoyl)-1H-1,2,4-triazole] | 0.07 mg/kg |
| CCOC(=O)n1nc(-c2cccc(OC)c2)nc1-c1ccccc1C [Example 10, 1-Carbethoxy-3-(3-methoxyphenyl)-5-(2-methylphenyl)-b 1H-1,2,4-triazole] | 0.06 mg/kg |
| COc1cccc(-c2nc(-c3ccccc3COC(C)=O)n(C(C)=O)n2)c1 [Example 7, 1-Acetyl-5-(2-acetoxymethylphenyl)-3-(3-methoxyphenyl)-1H-1,2,4-triazole] | 0.04 mg/kg |
| CCNC(=O)n1nc(-c2cccc(OC)c2)nc1-c1ccccc1C [Example 14] | 0.15 mg/kg |
| COc1cccc(-c2nc(-c3ccccc3C)n(C(C)=O)n2)c1 [Example 1, 1-Acetyl-3-(3-methoxyphenyl)-5-(2-methylphenyl)-1H-1,2,4-triazole] | 0.05 mg/kg |
| COc1cccc(-c2nc(-c3ccccc3C)nn2C(=O)Nc2ccc(C)cc2)c1 [Example 22b, 5-(3-methoxyphenyl)-3-(2-methylphenyl)-1-(4-methylphenylcarbamoyl)-1H-1,2,4-triazole] | 0.08 mg/kg |
| CCc1ccccc1-c1nc(-c2cccc(OC)c2)nn1C(=O)Nc1ccc(Cl)cc1 [Example 19, 1-(4-Chlorophenylcarbamoyl)-5-(2-ethylphenyl)-3-(3-methoxyphenyl)-1H-1,2,4-triazole] | 0.05 mg/kg |
| CCC(=O)n1nc(-c2cccc(OC)c2)nc1-c1ccccc1C [Example 2, 1-Propionyl-3-(3-methoxyphenyl)-5-(2-methylphenyl)-1H-1,2,4-triazole] | 0.07 mg/kg |
| COc1cccc(-c2nc(-c3ccccc3C)n(C)n2)c1 [1-Methyl-3-(3-methoxyphenyl)-5-(2-methylphenyl)-1H-1,2,4,-triazole, reference compound] | > 10 mg/kg |
| CCc1ccccc1-c1nc(-c2cccc(OC)c2)n(C(=O)Nc2ccc(C)cc2)n1 [Example 21b, 3-(2-ethylphenyl)-5-(3-methoxyphenyl)-1-(4-methylphenylcarbamoyl)-1H-1,2,4-triazole] | 0.04 mg/kg |
| CCc1ccccc1-c1nc(-c2cccc(OC)c2)nn1C(=O)Nc1ccccc1Cl [Example 18] | 0.05 mg/kg |
| CCc1ccccc1-c1nc(-c2cccc(OC)c2)nn1C(=O)Nc1ccccc1 [Example 16] | 0.05 mg/kg |
| COc1cccc(-c2nc(-c3ccccc3C)n(C(=O)Nc3ccc(C)cc3)n2)c1 [Example 22a, 3-(3-methoxyphenyl)-5-(2-methylphenyl)-1-(4-methylphenylcarbamoyl)-1H-1,2,4-triazole] | 0.08 mg/kg |
| CCOC(=O)n1nc(-c2cccc(OC)c2)nc1-c1ccccc1CC [Example 8, 1-Carbethoxy-5-(2-ethylphenyl)-3-(3-methoxyphenyl)-1H-1,2,4-triazole] | 0.05 mg/kg |
| COc1cccc(-c2n[nH]c(-c3ccccc3COC(C)=O)n2)c1 [Example 24, 5-(2-Acetoxymethylphenyl)-3-(3-methoxyphenyl)-1H-1,2,4-triazole] | 0.04 mg/kg |
| CCc1ccccc1-c1nc(-c2cccc(OC)c2)nn1C(=O)NC [Example 15, 5-(2-Ethylphenyl)-3-(3-methoxyphenyl)-1-methylcarbamoyl-1H-1,2,4-triazole] | 0.05 mg/kg |
| COc1cccc(-c2nc(-c3ccccc3C)n(C(=O)C(C)(C)C)n2)c1 [Example 3, 1-(2,2-Dimethylpropionyl)-3-(3-methoxyphenyl)-5-(2-methylphenyl)-1H-1,2,4-triazole] | 0.15 mg/kg |
| CCc1ccccc1-c1nc(-c2cccc(OC)c2)nn1C(=O)Nc1ccc(C)cc1 [Example 21a, 5-(2-Ethylphenyl)-3-(3-methoxyphenyl)-1-(4-methylphenylcarbamoyl)-1H-1,2,4-triazole] | 0.05 mg/kg |
| COc1cccc(-c2nc(-c3ccccc3C)n(C(=O)Nc3ccccc3)n2)c1 [Example 13, 3-(3-Methoxyphenyl)-5-(2-methylphenyl)-1-phenylcarbamoyl-1H-1,2,4-triazole] | 0.05 mg/kg |

same assay, conditions: hamster, 10 mg/kg s.c. daily for 5 days, days 4-8 of pregnancy

| SMILES | activity by the criterion: reduction of live fetuses in at least 60% of the treated animals |
| --- | --- |
| COc1cccc(-c2nc(-c3ccccc3C)n(C)n2)c1 [1-Methyl-3-(3-methoxyphenyl)-5-(2-methylphenyl)-1H-1,2,4,-triazole, reference compound] | much less active |
